Results as given in patent US11759412B2, “Personal care compositions with glutathione precursor comprising 4-substituted resorcinols and amino acids” (Conopco, Inc., priority 2016, dated 2023).

Assays:
Format in all cases: cell-based
Human Keratinocytes [1] = test: Cell Viability Assay (CCK-8, menadione); conditions: for Cell viability (% of vehicle of control): Table 2H; for % Protection (improvement vs vehicle control + menadione), cell viability / Cell viability (% of control): Table 2D
Method: Human Keratinocytes (Promocell, Heidelberg, Germany) were maintained in EpiLife® keratinocyte medium containing 60 uM calcium chloride and 1% Human Keratinocyte Growth Supplement (HKGS). The medium was refreshed every other day. Subsequently, cells were trypsinized at 90% confluency and seeded at a density of 2×10^4 per well into 96-well transparent tissue culture plates. On the second day after seeding, cell medium was replaced with treatments as described above in ROS assay section. After 18 hours, […] (CCK-8) reagent (Dojindo, Kumamoto, Japan) was diluted 1:10 in HBSS and incubated with cells for 4 h at 37° C. in a humidified incubator. Optical absorption at 450 nm was measured using a Tecan Safire2 plate reader. Relative viability was calculated with normalization based on the vehicle control treatment, which was set to 100%.
Where indicated, percent protection was calculated as a comparison to menadione alone treatment, using the measured relative absorbance units in the following equation: […]

Aged Human Keratinocytes = test: Glutathione Assay (total glutathione, GSH-GSSG Glo, menadione challenge); conditions: for synergistic increase in GSH synthesis, combination with GAP amino acids vs either alone: resorcinol/test reagent combined with GAP, + menadione
Method: Aged Human Keratinocytes (Cascade Biologics, now ThermoFisher Scientific, Waltham, Mass.) were maintained in Epi Life® medium containing 60 uM calcium chloride and 1% Human Keratinocyte Growth Supplement (both media components from ThermoFisher Scientific) in a humidified incubator with an atmosphere containing 5% CO2 at 37° C. The medium was refreshed every 2-3 days. Subsequently, cells were trypsinized at 90% confluency and seeded at a density of 1×10^4 per well into 96-well plates with white wall and clear bottom. One or two days after seeding, cell medium was replaced with Hank's Balanced Salt Solution (HBSS), and keratinocytes were pre-treated with GAP (or 0.12-0.240 mM sodium hydroxide vehicle control, pH 7.5) alone or in combination with additional test reagents described above or L-cystine esters alone for 1-2 hours. The concentration of all amino acids constituting the GAP mixture used in this assay are designated in the data tables, and fully described in the abbreviations list below.
After one or two hours of pre-treatment with GAP or additional test reagents, alone or in combination, keratinocytes were then challenged with 25 uM menadione (Sigma-Aldrich), a known inducer of oxidative stress. After 18-20 hours, cells were harvested and analyzed for total glutathione levels using a commercially available kit (GSH-GSSG GLo Assay, Promega), a luminescence-based system for the detection and quantification of total glutathione in cultured cells. In summary, after cell treatment, the media was removed and replaced with a cell lysis reagent for 5 minutes at 20-25° C.; note, all remaining steps were also conducted at 20-25° C. Next, a luciferase generation reagent was added to each well and incubated for 30 minutes. Following this step, a luciferin detection reagent was added to each well and plates were incubated for 15 minutes. Finally, plates were then read for luminescence in a FlexStation 3 plate reader (Molecular Devices). Total glutathione levels were calculated after interpolation of glutathione concentrations from a standard curve. Experimental conditions were typically conducted in at least triplicate determinations. Statistical significance was calculated using 1-way ANOVA. Percent protection was calculated by using the calculated glutathione levels from each experiment in the following equation: […]

[2] = molecular target: T1, tyrosinase in Human primary melanocytes (Homo sapiens, UniProt P14679); test: Tyrosinase Activity Assay (in situ, melanocyte lysate, DOPA/MBTH); conditions: Table 4, GAP where present: glutamine 32 uM, cystine 40 uM, glycine 129 uM, 72 hours
T1 construct: host or cells: Human primary melanocytes
T1 sequence (P14679 19-529): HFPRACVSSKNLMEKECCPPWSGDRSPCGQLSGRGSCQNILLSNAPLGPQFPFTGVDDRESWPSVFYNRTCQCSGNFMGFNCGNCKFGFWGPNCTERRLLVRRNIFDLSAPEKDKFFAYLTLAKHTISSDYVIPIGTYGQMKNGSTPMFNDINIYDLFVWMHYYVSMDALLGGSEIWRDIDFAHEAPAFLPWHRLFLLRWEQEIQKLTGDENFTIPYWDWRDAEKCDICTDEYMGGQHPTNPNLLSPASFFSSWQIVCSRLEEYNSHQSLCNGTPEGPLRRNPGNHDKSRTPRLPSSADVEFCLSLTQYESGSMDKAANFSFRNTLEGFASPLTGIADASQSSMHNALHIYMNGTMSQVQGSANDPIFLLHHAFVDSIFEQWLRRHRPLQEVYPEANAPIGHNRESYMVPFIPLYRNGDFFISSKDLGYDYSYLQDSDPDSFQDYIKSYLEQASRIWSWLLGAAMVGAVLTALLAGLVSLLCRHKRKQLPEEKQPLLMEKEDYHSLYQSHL
Method: Human primary melanocytes (Cascade Biologics, now ThermoFisher Scientific) were grown in melanocytes growth medium (MGM) with human melanocyte growth supplement (both media components from ThermoFisher Scientific). Melanocytes were seeded at 1×10^4 cells/well in a 96 wells plate and cultures left undisturbed for 24 hrs in a 5% CO2 humidified incubator at 37° C. At 24 hrs post-seeding, cells were treated with GAP amino acids (consisting of glutamine (32 uM), cystine (40 uM), glycine (129 uM)) alone or in combination with test reagents described above, and left undisturbed for another 72 hours. Subsequently, cell viability was assessed and the cells were then lysed and progressed for determination of in situ tyrosinase activity. Cultures were rinsed twice with 1× phosphate-buffered saline and lysed with 40 uL of 0.5% TritonX 100 for 1 hour on an ice bed. In situ tyrosinase activity was visualized by addition of 60 μl of 50 mM potassium phosphate buffer (pH 6.8) containing 2 mM DOPA (3,4 dihydroxy phenylalanine) and 4 mM MBTH reagent (3-Methyl-2-Benzothiazolinone hydrazone hydrochloride) for 1 hour at 37° C. The reaction was stopped by the addition of 100 uL of ice-cold 10% tricholoracetic acid and then centrifuged at approximately 300 g for 10 minutes at 4° C. The soluble supernatant was separated from the pellet and the optical density read in a TECAN plate-reader (540 nm filter). The spectrophotometric optical density at 540 nm for untreated cells (no active) is considered as 100% tyrosinase activity. Tyrosinase activity is expressed after correction for cell numbers (activity/viability) and represented as % control.

Human Keratinocytes [3] = test: Reactive Oxygen Species (ROS) Assay (CellROX green, menadione); conditions: for synergistic decrease in ROS production, combination with GAP amino acids vs either alone: resorcinol/test reagent combined with GAP, + menadione
Method: Human Keratinocytes (Promocell, Heidelberg, Germany) were maintained in EpiLife® keratinocyte medium containing 60 uM calcium chloride and 1% Human Keratinocyte Growth Supplement (HKGS) in a humidified incubator with an atmosphere containing 5% CO2 at 37° C. The medium was refreshed every other day. Subsequently, cells were trypsinized at 90% confluency and seeded at a density of 1-2×10^4 per well into 96-well plates with black wall and clear bottom. On the second day after seeding, cell medium was replaced with Hank's Balanced Salt Solution (HBSS) with or without menadione (10-25 uM), GAP (typically at 49 uM pyroglutamic acid, 60 uM cystine, 194 uM glycine), GAP vehicle (0.2 mM NaOH, pH 7.5), above-described additional test reagents, or combinations of GAP with additional test reagents or L-cystine esters alone, and incubated for additional 18 hours. For ROS detection, CellROX green (Life Tech, Thermo Fisher Scientific, Rockford, USA) reagent was added into each well to a final concentration of 15-25 uM and incubated for additional 2-4 hours at 37° C. in a humidified incubator. The ROS fluorescence was detected using a Tecan microplate reader (Excitation/Emission=490/525). Relative ROS production was calculated with normalization based on the vehicle control treatment which was set to 100%. Where indicated, percent protection was calculated as a comparison to menadione alone treatment, using the measured relative fluorescent units in the following equation: […]
ROS levels were evaluated together with cell viability because it is possible to get a false negative for ROS if treatment is so toxic, that at the time of assay, cells are dead (and there are no longer any detectable ROS). Decrease in ROS levels is meaningful if cells are still viable.

[4] = Table 1A, HR 20 uM where present, + menadione 25 uM

In the case of `CCc1ccc(O)cc1O` [ER, 4-ethylresorcinol], the “Cell viability (% of vehicle of control)” value (Human Keratinocytes [1]; ER 10 uM + menadione) is reported as 36.6%, the “Cell viability (% of vehicle of control)” value (Human Keratinocytes [1]; ER 20 uM + menadione) is reported as 39.8% and the “% Protection (improvement vs. vehicle control + menadione)” value (Aged Human Keratinocytes; Table 2C, ER 40 uM + menadione) is reported as 0%. For the same molecule, the “Glutathione Synthesis, Mean (uM glutathione)” value (shortened to “Glutathione Synthesis, Mean”) (Aged Human Keratinocytes; Table 2C, ER 40 uM + menadione) was 0.36 µM, the “% Protection (improvement vs. vehicle control + menadione)” value (Aged Human Keratinocytes; Table 2C, ER 50 uM + menadione) was −4% and the “Glutathione Synthesis, Mean” value (Aged Human Keratinocytes; Table 2C, ER 50 uM + menadione) was 0.25 µM. For the same molecule, the “% Protection (improvement vs. vehicle control + menadione)” value (Aged Human Keratinocytes; Table 2C, ER 60 uM + menadione) was −1%, the “Glutathione Synthesis, Mean” value (Aged Human Keratinocytes; Table 2C, ER 60 uM + menadione) was 0.34 µM and the “synergistic increase in GSH synthesis, combination with GAP amino acids vs either alone” value (Aged Human Keratinocytes) was “synergistic increase”. The inhibition at 5 µM ([2]; resorcinol (HR or ER) 5 uM) was 67%, the inhibition at 10 µM ([2]; resorcinol (HR or ER) 10 uM) was 68% and the “Mean ROS production (% of vehicle control)” value (Human Keratinocytes [3]; Table 2H, ER 10 uM + menadione) was 287.5%. The “Mean ROS production (% of vehicle control)” value (Human Keratinocytes [3]; Table 2H, ER 20 uM + menadione) was 308.3% and the “synergistic decrease in ROS production, combination with GAP amino acids vs either alone” value (Human Keratinocytes [3]) was “not observed”.
With `CCCCCCc1ccc(O)cc1O` [HR, 4-hexylresorcinol] the “% Protection (improvement vs vehicle control + menadione), cell viability” value (Human Keratinocytes [1]; HR 10 uM + menadione) was 18.85^3%, the “Cell viability (% of control)” value (Human Keratinocytes [1]; HR 10 uM + menadione) was 65.1^3% and the “% Protection (improvement vs vehicle control + menadione), cell viability” value (Human Keratinocytes [1]; HR 20 uM + menadione) was −79.00%. The “Cell viability (% of control)” value (Human Keratinocytes [1]; HR 20 uM + menadione) was 11.0%, the “% Protection (improvement vs. vehicle control + menadione)” value (Aged Human Keratinocytes; [4]) was 22^1% and the “Glutathione Synthesis, Mean” value (Aged Human Keratinocytes; [4]) was 0.46^1 uM. For the same molecule, the “% Protection (improvement vs. vehicle control + menadione)” value (Aged Human Keratinocytes; Table 2A, HR 10 uM + menadione) was 4%, the “Glutathione Synthesis, Mean” value (Aged Human Keratinocytes; Table 2A, HR 10 uM + menadione) was 0.24 µM and the “% Protection (improvement vs. vehicle control + menadione)” value (Aged Human Keratinocytes; Table 2A, HR 20 uM + menadione) was 5%. For the same molecule, the “Glutathione Synthesis, Mean” value (Aged Human Keratinocytes; Table 2A, HR 20 uM + menadione) was 0.28 µM, the “% Protection (improvement vs. vehicle control + menadione)” value (Aged Human Keratinocytes; Table 2A, HR 40 uM + menadione) was 1% and the “Glutathione Synthesis, Mean” value (Aged Human Keratinocytes; Table 2A, HR 40 uM + menadione) was 0.19 µM. For the same molecule, the “% Protection (improvement vs. vehicle control + menadione)” value (Aged Human Keratinocytes; Table 2A, HR 60 uM + menadione) was 0%, the “Glutathione Synthesis, Mean” value (Aged Human Keratinocytes; Table 2A, HR 60 uM + menadione) was 0.14 µM and the “synergistic increase in GSH synthesis, combination with GAP amino acids vs either alone” value (Aged Human Keratinocytes) was “synergistic increase”. The “Tyrosinase activity inhibition, Mean of % Inhibition” value ([2]; resorcinol (HR or ER) 5 uM) was 63^1%, the “Tyrosinase activity inhibition, Mean of % Inhibition” value ([2]; resorcinol (HR or ER) 10 uM) was 71^1% and the “% protection (improvement vs vehicle control + menadione), ROS” value (Human Keratinocytes [3]; Table 2D, HR 10 uM + menadione) was 69.6^3%. For the same molecule, the “Mean ROS production (% of vehicle control)” value (Human Keratinocytes [3]; Table 2D, HR 10 uM + menadione) was 153.4^3%, the “% protection (improvement vs vehicle control + menadione), ROS” value (Human Keratinocytes [3]; Table 2D, HR 20 uM + menadione) was 76.49^3% and the “Mean ROS production (% of vehicle control)” value (Human Keratinocytes [3]; Table 2D, HR 20 uM + menadione) was 118.7^3%. For the same molecule, the “synergistic decrease in ROS production, combination with GAP amino acids vs either alone” value (Human Keratinocytes [3]) was “synergistic decrease”.
